The text below walks through data of patent publication US20080269258A1, “Riboswitches, Structure-Based Compound Design with Riboswitches, and Methods and Compositions for Use of and with Riboswitches” (priority 2004, published 2008).

The target of test [1] is adenine riboswitch RNA (AR). Kind of test: Isothermal titration calorimetry, adenine riboswitch RNA. The note with it: 50 mM K+HEPES, pH 7.5, 100 mM KCl, 10 mM MgCl2, 30° C. Format: binding. On the procedure: Isothermal Titration Calorimetry. […] All experiments were performed with a Microcal MCS ITC instrument at 30° C. […] Titration data was analyzed using Origin ITC software (Microcal Software Inc.) and fit to a single-site binding model.
For orientation: In ITC the heat of successive injections is recorded.

Test [2] deals with guanine riboswitch RNA (GR). Kind of test: Isothermal titration calorimetry, guanine riboswitch RNA. It is filed as binding, B. subtilis. The text has this:
Isothermal Titration Calorimetry. RNA for isothermal titration calorimetry (ITC) (Leavitt, S. & Freire, E. Direct measurement of protein binding energetics by isothermal titration calorimetry. Curr Opin Struct Biol 11, 560-6 (2001); Pierce, M., Raman, C. S. & Nall, B. T. Isothermal titration calorimetry of protein-protein interactions. […]

The subject of test [3] is guanine riboswitch (aptamer of the xpt-pbuX mRNA). Kind of test: In-line probing of ligand binding to the guanine riboswitch in vitro. Details: species or system B. subtilis. The conditions noted are these: for Kd: high Mg2+ ion concentrations (20 mM MgCl2), read-out: observed dissociation constant (Kd). An excerpt: The putative anti-terminator interaction is represented by the boxes. Nucleotides that undergo structural alteration as determined by in-line probing (from C) are identified with squares. […] Asterisks denote alterations to the RNA sequence that facilitate in vitro transcription (5′ terminus) or that generate a restriction site (3′ terminus). Nucleotide numbers begin at the first nucleotide of the natural transcription start site. The translation start codon begins at position 186. […] Lanes designated NR, T1 and ^−OH contain RNA that was not reacted, subjected to partial digestion with RNase T1 (G-specific cleavage), or subjected to partial alkaline digestion, respectively. Selected bands corresponding to G-specific cleavage are identified.
Differences in chemical structure relative to guanine are encircled. Numbers on guanine represent the positions of the ring nitrogen atoms.
NR, T1 and OH identify no reaction, nuclease T1 partial digestion, and alkaline partial digestion respectively. In-line probing assays were conducted for ˜1 day, and a dampening of spontaneous RNA cleavage product bands in the J1/2, J2/3 and J3/1 regions are indicative of ligand binding.

Another test has as its target purR repressor protein (Escherichia coli, UniProt P0ACP7). The note with it: read-out: observed Kd; E. coli variant of purR repressor; cited from earlier work.
The next test deals with Mycobacterium smegmatis. Kind of test: Minimal inhibitory concentration, clinically relevant pathogens. It is filed as cell-based. The conditions noted are these: Mycolicibacterium smegmatis; pathogen without guanine riboswitch; read-out: Minimal inhibitory concentrations, MS.
A further test concerns Haemophilus influenza. The description is as above. It is filed as cell-based. The note with it: pathogen without guanine riboswitch, read-out: Minimal inhibitory concentrations, HI.
For a further test, the system named is Streptococcus pneumoniae. The description is as above. Format: cell-based. The conditions noted are these: read-out: Minimal inhibitory concentrations, SP.
Test [4] concerns methicillin-resistant Staphylococcus aureus. Described as above. It is filed as cell-based. The note with it: MRSA, read-out: Minimal inhibitory concentrations, MRSA.
The test system of another test is Bacillus anthracis. Kind of test: microbe, parasite or virus in culture. It is filed as cell-based. The note with it: read-out: Minimal inhibitory concentrations, BA.
Setting [5] is: 50 mM K+HEPES, 100 mM KCl, 10 mM MgCl2, 30° C.
Where [6] appears, read: 50 mM K+HEPES, 100 mM KCl, 10 mM MgCl2, 30° C., read-out: Kd.

Molecules are shown by their SMILES. Values after ≈ are worked out from the molar mass of the structure shown. Like-named read-outs stand apart in the source and are kept apart here.

Chain of purR repressor protein (P0ACP7 whole entry): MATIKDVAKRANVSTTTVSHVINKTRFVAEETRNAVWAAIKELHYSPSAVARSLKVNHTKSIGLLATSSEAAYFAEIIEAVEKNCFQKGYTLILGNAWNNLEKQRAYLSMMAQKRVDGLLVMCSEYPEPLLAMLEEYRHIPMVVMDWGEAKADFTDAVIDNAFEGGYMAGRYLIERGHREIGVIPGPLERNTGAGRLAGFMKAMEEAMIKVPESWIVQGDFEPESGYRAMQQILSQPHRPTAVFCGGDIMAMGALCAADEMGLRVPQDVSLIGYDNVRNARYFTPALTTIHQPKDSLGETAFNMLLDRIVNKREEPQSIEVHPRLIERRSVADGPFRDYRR

For `c1ncc2[nH]cnc2n1` [Purine], in test [1], binding was characterised by a dissociation constant (Kd) of 110000 ± 3000 nM, the ΔH is -25.4 ± 0.99 kcal/mol and the ΔS was −65.4 ± 3.00 Cal/mol · deg.

In test [1], `Nc1nc(N)c2[nH]cnc2n1` [2,6-Diaminopurine] gave a Kd of 17 ± 6 nM, a ΔH of -40.3 ± 2.91 kcal/mol and a ΔS of −97.6 ± 4.00 Cal/mol · deg.

Consider `Nc1nc(N)c(N)c(N)n1` [2,4,5,6-Tetraaminopyrimidine], for which, in test [1], the Kd was 24900 ± 4250 nM, the ΔH is -43.2 ± 3.50 kcal/mol and the ΔS is recorded as −122 ± 12.0 Cal/mol · deg.

Consider `Nc1ncc2[nH]cnc2n1` [2-Aminopurine], for which the Kd in test [1] was 251 ± 26 nM; in test [2] (setting [6]), 4360 ± 1200 nM. In addition, the ΔH in test [1] is -31.8 ± 2.64 kcal/mol; in [2] (setting [5]), -46.4 ± 2.66 kcal/mol. Besides, the ΔS in test [1] was −73.9 ± 9.26 Cal/mol · deg; in test [2] (setting [5]), −129 ± 8.20 cal/mol · deg.

For `Nc1ncnc2nc[nH]c12` [Adenine], in [1], the Kd was 469 ± 41 nM, the ΔH was -34.5 ± 0.05 kcal/mol and the ΔS is listed as −84.8 ± 0.30 Cal/mol · deg.

In [2] (setting [5]), `COc1nc(N)nc2nc[nH]c12` [O-Methylguanine] gave a ΔH of -18.7 kcal/mol and a ΔS of −23.3 cal/mol · deg. Besides, the Kd in test [2] (setting [6]) was found to be 3 nM.

As for `Nc1nc(Br)c2[nH]cnc2n1` [6-Bromoguanine], the Kd in [1] was 2700 ± 1160 nM; in test [2] (setting [6]) it was 2120 ± 560 nM. Also, the ΔH in [1] was -50.4 ± 0.16 kcal/mol; in test [2] (setting [5]), -39.0 ± 7.79 kcal/mol. For the same compound, the values for the ΔS in test [1] and in [2] (setting [5]) were −141 ± 1.90 Cal/mol · deg and −103 ± 26.2 cal/mol · deg, respectively.

Take `Nc1nc2nc[nH]c2c(=S)[nH]1` [6-Thioguanine]: in [2] (setting [5]), the ΔH is -40.6 ± 14.5 kcal/mol and the ΔS is listed as −101 ± 47.5 cal/mol · deg. In test [2] (setting [6]), the Kd is 73.7 ± 10 nM.

`Cc1ncnc2nc[nH]c12` [6-Methylpurine]: in [1], binding was put at a Kd of 25200 ± 1630 nM, the ΔH was -31.5 ± 0.42 kcal/mol and the ΔS was −82.9 ± 1.25 Cal/mol · deg.

Take `Nc1nc2nc[nH]c2c(=O)[nH]1` [Guanine]: in test [3], the “affinity of the riboswitch for guanine over hypoxanthine” value is listed as “tenfold” and the Kd worked out at 5 nM. Besides, in test [2] (setting [5]), the ΔH was -53.5 ± 6.98 kcal/mol and the ΔS was −137 ± 24.8 cal/mol · deg. In addition, the Kd in test [2] (setting [6]) amounted to 4 ± 3 nM.

On to `O=c1[nH]cnc2nc[nH]c12` [Hypoxanthine], for which the Kd in test [3] was 50 nM; at purR repressor protein, 9000 nM; in test [2] (0.25 mM MgCl2, 30° C., read-out: Kd), 4000 ± 190 nM; in test [2] (1.0 mM MgCl2, 30° C., read-out: Kd), 2990 ± 190 nM; in test [2] (5.0 mM MgCl2, 30° C., read-out: Kd), 1340 ± 94 nM; in test [2] (20 mM MgCl2, 30° C., read-out: Kd), 732 ± 34 nM. Moreover, the Kd in test [2] (setting [6]) was 759 ± 66 nM; in [2] (ITC, more physiological ionic strength (0.25-1 mM Mg2+), read-out: observed Kd), 3000 to 4000 nM. The ΔHobs is -41.9 ± 0.39 kcal/mol in test [2] (0.25 mM MgCl2, 30° C.); -35.4 ± 0.93 kcal/mol in test [2] (1.0 mM MgCl2, 30° C.); -28.4 ± 0.48 kcal/mol in test [2] (5.0 mM MgCl2, 30° C.); -33.5 ± 0.43 kcal/mol in test [2] (20 mM MgCl2, 30° C.). Besides, the ΔSobs in test [2] (0.25 mM MgCl2, 30° C.) is reported as −113 cal mol^−1 K^−1; in test [2] (1.0 mM MgCl2, 30° C.), −91 cal mol^−1 K^−1; in [2] (5.0 mM MgCl2, 30° C.), −67 cal mol^−1 K^−1; in [2] (20 mM MgCl2, 30° C.), −82 cal mol^−1 K^−1. This compound also yielded a ΔH in test [2] (setting [5]) of -31.3 ± 0.01 kcal/mol. In test [2] (setting [5]), this compound came in with a ΔS of −75.3 ± 0.145 cal/mol · deg.

In test [2] (setting [5]), `O=c1[nH]c(=O)c2[nH]cnc2[nH]1` [Xanthine] displayed a ΔH of -34.6 ± 10.4 kcal/mol and a ΔS of −94.4 ± 34.5 cal/mol · deg. In addition, the Kd in test [2] (setting [6]) is 50500 ± 5800 nM.

In [1], `Nc1nc(F)nc2nc[nH]c12` [2-Fluoroadenine] returned a Kd of 4020 ± 1070 nM, a ΔH of -37.4 ± 3.41 kcal/mol and a ΔS of −98.7 ± 11.8 Cal/mol · deg.

As for `CSc1nc(N)nc2nc[nH]c12` [6-Methylthioguanine], in test [2] (setting [5]), the ΔH was -24.5 ± 0.20 kcal/mol and the ΔS was −46.9 ± 0.24 cal/mol · deg. In [2] (setting [6]), the Kd was 41.8 ± 3 nM.

On to `CN[C@H](CC(C)C)C(=O)N[C@H]1C(=O)N[C@@H](CC(N)=O)C(=O)N[C@H]2C(=O)N[C@H]3C(=O)N[C@H](C(=O)N[C@H](C(=O)O)c4cc(O)cc(O)c4-c4cc3ccc4O)[C@H](O)c3ccc(c(Cl)c3)Oc3cc2cc(c3O[C@@H]2O[C@H](CO)[C@@H](O)[C@H](O)[C@H]2O[C@H]2C[C@](C)(N)[C@H](O)[C@H](C)O2)Oc2ccc(cc2Cl)[C@H]1O` [Vancomycin], for which the MIC in the test with Mycobacterium smegmatis amounted to 24 µg/mL (≈ 16.6 µM); in the test on Haemophilus influenza, 64 µg/mL (≈ 44.2 µM); in the test with Streptococcus pneumoniae, 0.25 µg/mL (≈ 0.173 µM); in test [4], 1 µg/mL (≈ 0.69 µM); in the test on Bacillus anthracis, 1.5 µg/mL (≈ 1.04 µM).

On to `Nc1nc2c(c(=O)[nH]1)CC=N2` [7-Deazaguanine], for which, in [2] (setting [5]), the ΔH was -42.0 ± 3.72 kcal/mol and the ΔS is on record as −105 ± 11.7 cal/mol · deg. Besides, the Kd in test [2] (setting [6]) came out at 49 ± 13 nM.

In test [1], `Nc1nc(Cl)c2nc[nH]c2n1` [6-Chloroguanine] yielded a Kd of 721 ± 44 nM, a ΔH of -44.3 ± 7.2 kcal/mol and a ΔS of −98.6 ± 4.39 Cal/mol · deg. Also, in test [2] (setting [5]), the ΔH was -43.6 ± 13.1 kcal/mol and the ΔS was −116 ± 43.2 cal/mol · deg. Further, the dissociation constant Kd in test [2] (setting [6]) amounted to 856 ± 14 nM.

In test [1], `Nc1cc(N)nc(N)n1` [2,4,6-Triaminopyrimidine] came in with a Kd of 18300 ± 1670 nM, a ΔH of -37.7 ± 0.23 kcal/mol and a ΔS of −102 ± 0.70 Cal/mol · deg.

Regarding `Nc1nc2nn[nH]c2c(=O)[nH]1` [Compound 8-Azaguanine, 8-Azaguanine], in test [2] (setting [5]), the ΔH is -46.9 ± 9.87 kcal/mol and the ΔS is −121 ± 32.6 cal/mol · deg. In addition, in test [2] (setting [6]), the Kd came out at 48.7 ± 100 nM.

The Kd is the equilibrium constant for the complex coming apart.
